Reference: US20040055025A1, “Immune response replication in cloned animals” (Infigen, Inc., priority 2002, published 2004)
“Also recorded” adds a separate entry of the source.

What was measured:
recipients = assay: Transfer of NT blastocysts from lovastatin-treated bovine cells into recipients: pregnancy outcome; type: in vivo
Experimental: After blastomere-oocyte fusion, the cybrids from second generation NT were cultured in CR2 media supplemented with BSA (3 mg/ml) under humidified air with 5% CO2 at 39° C. On the third day of culture, developing embryos were evaluated and cultured further until day seven in CR2 media containing 10% FCS. Morphologically good to fair quality embryos were non-surgically transferred into recipient females.
Similar results were obtained using statin-treated bovine cells in nuclear transfer procedures. […] One or two blastocysts were non-surgically transferred into 5 recipients of which two became pregnant (Table 3).

[1] = system: ear cells derived from a newborn cloned calf (C188/Firstdown-FB000); assay: Nuclear transfer with lovastatin-treated bovine ear cells: in vitro embryo development; type: cell-based; conditions: for Emb. Devel. (% Blastocyst): NT embryos from ear cells treated with lovastatin for 24 hours, day 7 of culture
Experimental: Mycoplasma free totipotent cells used in the NT procedure, were prepared by cutting out a group of cells from the culture dish using a glass needle. The cells were then incubated in a TL HEPES solution containing from 1 to 3 mg/ml pronase E at approximately 32° C. for 15-60 minutes, the amount of time which was needed in this example to disaggregate the cells. Once the cells were in a single cell suspension they were used for NT within a 2-3 hour period.
Oocytes aspirated from ovaries were matured overnight (16 hours) in maturation medium. Medium 199 (Biowhittaker, Cat #12-119F) supplemented with luteinizing hormone 10 IU/ml (LH; Sigma, Cat #L9773), […] (Sigma, Cat #E8875) and 10% FCS or estrus cow serum, was used. Within 16-17 hours of maturation, the cumulus layer expanded and the first polar bodies were extruded.
In the first NT procedure, young oocytes (16-17 hours in maturation medium) were stripped of their cumulus cell layers and nuclear material stained with Hoechst 33342 5 mg/ml (Sigma, Cat #2261) in TL HEPES solution supplemented with cytochalasin B (7 μg/ml, Sigma, Cat #C6762) for 15 min. Oocytes were then enucleated in TL HEPES solution under mineral oil. A single cell of optimal size (12 to 15 μm) was then selected from a cell suspension and injected into the perivitelline space of the enucleated oocyte. The cell and oocyte membranes were then induced to fuse by electrofusion in a 500 μm chamber by application of an electrical pulse of 90V for 15 μs.
Cybrid activation was induced by a 4 min exposure to 5 μM calcium ionophore A23187 (Sigma Cat. #C-7522) or ionomycin Ca-salt in HECM (hamster embryo culture medium) containing 1 mg/ml BSA followed by a 1:1000 dilution in HECM containing 30 mg/ml BSA for 5 min. For HECM medium, See, e.g., Seshagiri & Barister, 1989, “Phosphate is required for inhibition of glucose of development of hamster eight-cell embryos in vitro,” Biol. Reprod. 40: 599-606. […]

[2] = system: ear cells (SA01-FB) used as nuclear donors; assay: Nuclear transfer with lovastatin-treated ovine ear cells: in vitro embryo development; type: cell-based, sheep; conditions: NT embryos from SA01-FB ear cells treated with 5 μM lovastatin for 24 hours; per day of NT
Experimental: Oocytes were aspirated from sheep ovaries obtained from an abattoir and recovered in TL HEPES medium (Biowhittaker 04-616F) containing 10 mg/ml Heparin (Sigma H-3393) and 4 mg/ml BSA (Sigma A-6003). Aspirations were performed using 20 GA needles with the vacuum set at 60 mm Hg.
Two maturation media were used to produce nuclear transfer pregnancies. Maturation Medium 1: TC199 (Gibco 11150-059), 2 mM Glutamine (Sigma G-5763), 10% FBS (Hyclone A-111D), 5 mg/ml ovine FSH (Sigma L-8174), 5 mg/ml ovine LH (Sigma L-5269), 1 mg/ml Estradiol (Sigma E-2257), 0.3 mM Na-pyruvate (Sigma P-4562), and […] (Sigma M-9768). Maturation Medium 3: TC199 (Gibco 11150-059), 10% FBS (Hyclone A-111D), 10 mg/ml ovine FSH (Sigma L-8174), 10 mg/ml ovine LH (Sigma L-5269), 1 mg/ml Estradiol (Sigma E-2257) and […] (Sigma M-9768).
Typically, oocytes were stripped of cumulus cells after 17 hours in maturation medium by vortexing in 0.5 ml of TL-HEPES. The chromatin was stained with Hoechst 33342 (5 mg/ml, Sigma) in TL-HEPES solution for 15 minutes. Oocytes were then enucleated in TL-HEPES with or without calcium.
All nuclear transfers were performed in TL HEPES containing calcium regardless of what enucleation medium was used. […]

estrus synchronized ewes = assay: Transfer of NT blastocysts from lovastatin-treated ovine cells into recipient ewes: pregnancy outcome

For `CC[C@H](C)C(=O)O[C@H]1C[C@@H](C)C=C2C=C[C@H](C)[C@H](CC[C@@H]3C[C@@H](O)CC(=O)O3)[C@H]21` [lovastatin], the “Number of recipients that became pregnant” value (recipients; of 5 recipients given one or two blastocysts) was “two”, the Outcome of pregnancies (recipients; two pregnancies from lovastatin treated bovine cells) was “One pregnancy aborted by day 32; also recorded: produced a live calf” and the “Emb. Devel. (% Blastocyst)” value [1] was 19%. For the same molecule, the “Emb. Devel. (% Blastocyst)” value ([1]; listed as LOVASTATIN) was 19%, the “Number of blastocysts produced by day 7 of culture” value ([1]; lovastatin treated cells used in NT on two different days) was 6 and the “# of Bl. (blastocysts, day 7)” value [2] was “one and four”. The “Status (of recipient after embryo transfer)” value (estrus synchronized ewes; NT blastocysts from lovastatin treated SA01-FB cells transferred into ewe, listed as L0) was “open and Lambed” and the Farrowed/Aborted (estrus synchronized ewes; Pregnancy Two, SA01-FB00 lovastatin treated, 4 Day 7 blastocysts transferred, recipient #56) was “farrowed”.
